Results taken from patent US20240166652A1, “MODULATORS OF THE INTEGRATED STRESS PATHWAY” (Calico Life Sciences LLC, priority 2017, published 2024).

These compounds were tested on ATF4 luciferase reporter in HEK293T cells (assay: ATF4-Luc assay (ATF4 luciferase reporter, tunicamycin-treated HEK293T cells)). Details: Homo sapiens, HEK-293T; HEK293T cells carrying the ATF4 luciferase reporter, 1 μg/mL tunicamycin, 7 hours.
Type: cell-based, human
Description: In order to test exemplary compounds of the invention in a cellular context, a stable VWMD cell line was first constructed. The ATF4 reporter was prepared by fusing the human full-length ATF4 5′-UTR (NCBI Accession No. BC022088.2) in front of the firefly luciferase (FLuc) coding sequence lacking the initiator methionine as described in Sidrauski et al (eLife 2013). The construct was used to produce recombinant retroviruses using standard methods and the resulting viral supernatant was used to transduce HEK293T cells, which were then subsequently selected with puromycin to generate a stable cell line.
HEK293T cells carrying the ATF4 luciferase reporter were plated on polylysine coated 384-well plates (Greiner Bio-one) at 30,000 cells per well. Cells were treated the next day with 1 μg/mL tunicamycin and 200 nM of a compound of Formula (I) for 7 hours. Luminescence was measured using One Glo (Promega) as specified by the manufacturer. Cells were maintained in DMEM with L-glutamine supplemented with 10% heat-inactivated FBS (Gibco) and Antibiotic-Antimycotic solution (Gibco).
Table 2 below summarizes the EC50 data obtained using the ATF4-Luc assay for exemplary compounds of the invention.

Compared with `O=C(CC(NC1COC1)c1ccc(Cl)cc1)NC12CCC(NC(=O)COc3ccc(Cl)c(F)c3)(CC1)[C@@H](O)C2` (stereo partly drawn) [Compound 713, N-{(3S)-4-[2-(4-chloro-3-fluorophenoxy)acetamido]-3-hydroxybicyclo[2.2.2]octan-1-yl}-3-(4-chlorophenyl)-3-[(oxetan-3-yl)amino]propanamide], `O=C(COc1ccc(Cl)c(F)c1)NC12CCC(NC(CCOc3ccc(Cl)cc3)C(=O)O)(CC1)C[C@@H]2O` (stereo partly drawn) [Compound 706, 2-({(3S)-4-[2-(4-chloro-3-fluorophenoxy)acetamido]-3-hydroxybicyclo[2.2.2]octan-1-yl}amino)-4-(4-chlorophenoxy)butanoic acid] is lower in EC50: > 2000 nM for the first, 250 to 500 nM for the second.

`O=C(COc1ccc(Cl)c(F)c1)NC12CC(NC(=O)COc3ccc(F)cc3F)(C1)C2` [Compound 409, 2-(4-chloro-3-fluorophenoxy)-N-{3-[2-(2,4-difluorophenoxy)acetamido]bicyclo[1.1.1]pentan-1-yl}acetamide] and `O=C(COc1ccc(F)c(Cl)c1)NC12CC(NC(=O)COc3ccc(Cl)c(Cl)c3)(C1)C2` [Compound 533, 2-(3-chloro-4-fluorophenoxy)-N-{3-[2-(3,4-dichlorophenoxy)acetamido]bicyclo[1.1.1]pentan-1-yl}acetamide] cannot be ordered by EC50: < 10 nM for the first, < 10 nM for the second.

First: O=C(COc1ccc(F)cc1)NC12CCC(NC(=O)COc3ccc(Cl)c(Cl)c3)(CC1)[C@@H](O)C2 [Compound 581, 2-(3,4-dichlorophenoxy)-N-{(2S)-4-[2-(4-fluorophenoxy)acetamido]-2-hydroxybicyclo[2.2.2]octan-1-yl}acetamide]
Second: CCOc1ccc(OCC(=O)NC23CCC(NC(=O)COc4ccc(Cl)c(F)c4)(CC2)C[C@@H]3O)cc1 [Compound 508, 2-(4-chloro-3-fluorophenoxy)-N-{(3S)-4-[2-(4-ethoxyphenoxy)acetamido]-3-hydroxybicyclo[2.2.2]octan-1-yl}acetamide]
The EC50 of the first is lower: < 10 nM for the first, 10 to 50 nM for the second.

Compared with `O=C(COc1ccc(Cl)c(F)c1)NC12CC(NC(=O)[C@H](O)CCc3ccccc3)(C1)C2` [Compound 462, (2R)-N-{3-[2-(4-chloro-3-fluorophenoxy)acetamido]bicyclo[1.1.1]pentan-1-yl}-2-hydroxy-4-phenylbutanamide], `CC(O)c1ccc(OCC(=O)NC23CC(NC(=O)COc4ccc(Cl)c(F)c4)(C2)C3)cn1` (centres unmarked) [Compound 263, 2-(4-chloro-3-fluorophenoxy)-N-[3-(2-{[6-(1-hydroxyethyl)pyridin-3-yl]oxy}acetamido)bicyclo[1.1.1]pentan-1-yl]acetamide] is lower in EC50: > 2000 nM for the first, 500 to 2000 nM for the second. The second is the more potent here.

`O=C(COc1ccc(Cl)c(F)c1)NC12C=C(C(=O)O)C(NC(=O)COc3ccc(Cl)c(F)c3)(CC1)CC2` [Compound 717, 1,4-bis[2-(4-chloro-3-fluorophenoxy)acetamido]bicyclo[2.2.2]oct-2-ene-2-carboxylic Acid] and `O=C(COc1ccc(Cl)c(F)c1)NC12CCC(NC(=O)COc3ccc(Cl)c(F)c3)(CC1)C(C(=O)O)C2` (centres unmarked) [Compound 390, 1,4-bis[2-(4-chloro-3-fluorophenoxy)acetamido]bicyclo[2.2.2]octane-2-carboxylic Acid] fall in the same range of EC50: 50 to 250 nM for the first, 50 to 250 nM for the second.

First: O=C(CCn1ncc(Cl)cc1=O)NC12CC(NC(=O)COc3ccc(Cl)c(F)c3)(C1)C2 [Compound 104, N-{3-[2-(4-chloro-3-fluorophenoxy)acetamido]bicyclo[1.1.1]pentan-1-yl}-3-(4-chloro-6-oxopyridazin-1(6H)-yl)propanamide]
Second: O=C(COCc1ccc(Cl)cc1)NC12CC(NC(=O)COc3ccc(Cl)c(F)c3)(C1)C2 [Compound 130, 2-(4-chloro-3-fluorophenoxy)-N-(3-{2-[(4-chlorophenyl)methoxy]acetamido}-bicyclo[1.1.1]pentan-1-yl)acetamide]
The EC50 of the first is higher: 250 to 500 nM for the first, 10 to 50 nM for the second. The second is the more potent here.

Compared with `O=C(COc1ccc(Cl)c(F)c1)NC12CCC(NC(=O)COc3ccc(Cl)c(F)c3)(CC1)C(N1CC(F)(F)C1)C2` (centres unmarked) [Compound 715, N,N′-[2-(3,3-difluoroazetidin-1-yl)bicyclo[2.2.2]octane-1,4-diyl]bis[2-(4-chloro-3-fluorophenoxy)acetamide]], `NC1CC2(NC(=O)COc3ccc(Cl)c(F)c3)CCC1(NC(=O)COc1ccc(Cl)c(F)c1)CC2` (centres unmarked) [Compound 357, N,N′-(2-aminobicyclo[2.2.2]octane-1,4-diyl)bis[2-(4-chloro-3-fluorophenoxy)acetamide]] is lower in EC50: 10 to 50 nM for the first, < 10 nM for the second. The second is the more potent here.

Compared with `O=C(COc1ccc(C(F)(F)F)nc1)NC12CC(NC(=O)COc3ccc4c(c3)OC(F)(F)O4)(C1)C2` [Compound 266, 2-[(2,2-difluoro-2H-1,3-benzodioxol-5-yl)oxy]-N-[3-(2-{[6-(trifluoromethyl)-pyridin-3-yl]oxy}acetamido)bicyclo[1.1.1]pentan-1-yl]acetamide], `O=C(COc1ccc2c(c1)OC(F)(F)C(F)(F)O2)NC12CCC(NC(=O)COc3ccc(Cl)c(F)c3)(CC1)C(=O)N2` [Compound 689, 2-(4-chloro-3-fluorophenoxy)-N-(3-oxo-1-{2-[(2,2,3,3-tetrafluoro-2,3-dihydro-1,4-benzodioxin-6-yl)oxy]acetamido}-2-azabicyclo[2.2.2]octan-4-yl)acetamide] is higher in EC50: < 10 nM for the first, 50 to 250 nM for the second. The first is the more potent here.

First: O=C(COc1ccc(Cl)c(F)c1)NC12CC(NC(=O)C3(c4ccc(Cl)cc4)CC3)(C1)C2 [Compound 668, N-{3-[2-(4-chloro-3-fluorophenoxy)acetamido]bicyclo[1.1.1]pentan-1-yl}-1-(4-chlorophenyl)cyclopropane-1-carboxamide]
Second: CN(CC(=O)NC12CC(NC(=O)COc3ccc(Cl)c(F)c3)(C1)C2)C(=O)c1ccc(Cl)cc1 [Compound 204, 4-chloro-N-[2-({3-[2-(4-chloro-3-fluorophenoxy)acetamido]-bicyclo[1.1.1]pentan-1-yl}amino)-2-oxoethyl]-N-methylbenzamide]
The EC50 of the first is higher: > 2000 nM for the first, 500 to 2000 nM for the second. The second is the more potent here.

Compared with `Cc1ccc(OC(=O)NC23CC(NC(=O)COc4ccc(Cl)c(F)c4)(C2)C3)cc1` [Compound 435, 4-methylphenyl {3-[2-(4-chloro-3-fluorophenoxy)acetamido]bicyclo[1.1.1]pentan-1-yl}carbamate], `O=C(COc1ccc(Cl)c(Cl)c1)NC12CC(NC(=O)OCCc3cccc(Cl)c3)(C1)C2` [Compound 173, 2-(3-chlorophenyl)ethyl {3-[2-(3,4-dichlorophenoxy)acetamido]-bicyclo[1.1.1]pentan-1-yl}carbamate] is lower in EC50: 250 to 500 nM for the first, 50 to 250 nM for the second. The second is the more potent here.

First: O=C1COc2c(cc(Cl)cc2OCC(=O)NC23CCC(NC(=O)COc4ccc(Cl)c(F)c4)(CC2)[C@@H](O)C3)N1 [Compound 754, 2-(4-chloro-3-fluorophenoxy)-N-[(2S)-4-{2-[(6-chloro-3-oxo-3,4-dihydro-2H-1,4-benzoxazin-8-yl)oxy]acetamido}-2-hydroxybicyclo[2.2.2]octan-1-yl]acetamide]
Second: O=C(COc1ccc(Cl)c(F)c1)NC12CCC(NC(=O)COc3ccc(Cl)nn3)(CC1)[C@@H](O)C2 [Compound 518, 2-(4-chloro-3-fluorophenoxy)-N-[(3S)-4-{2-[(6-chloropyridazin-3-yl)oxy]acetamido}-3-hydroxybicyclo[2.2.2]octan-1-yl]acetamide]
The EC50 of the first is higher: > 2000 nM for the first, 10 to 50 nM for the second.

First: O=C(COc1ccc(Cl)c(F)c1)NC12CCC(NC(=O)COc3nc(N4CCCCC4)nc(N4CCCCC4)n3)(CC1)[C@@H](O)C2 [Compound 523, 2-(4-chloro-3-fluorophenoxy)-N-[(3S)-4-(2-{[4,6-di(piperidin-1-yl)-1,3,5-triazin-2-yl]oxy}acetamido)-3-hydroxybicyclo[2.2.2]octan-1-yl]acetamide]
Second: N#Cc1ncc(OCC(=O)NC23CCC(NC(=O)COc4ccc(Cl)c(F)c4)(CC2)[C@@H](O)C3)cn1 [Compound 623, 2-(4-chloro-3-fluorophenoxy)-N-[(2S)-4-{2-[(2-cyanopyrimidin-5-yl)oxy]acetamido}-2-hydroxybicyclo[2.2.2]octan-1-yl]acetamide]
The EC50 of the first is higher: > 2000 nM for the first, 10 to 50 nM for the second.

Going from `COC(=O)C1CC2(NC(=O)COc3ccc(Cl)c(F)c3)CCC1(NC(=O)COc1ccc(Cl)c(F)c1)CC2` (centres unmarked) [Compound 569, methyl 1,4-bis[2-(4-chloro-3-fluorophenoxy)acetamido]bicyclo[2.2.2]octane-2-carboxylate] to `CS(=O)(=O)c1cc(F)ccc1OCC(=O)NC12CCC(NC(=O)COc3ccc(Cl)c(F)c3)(CC1)[C@@H](O)C2` [Compound 751, 2-(4-chloro-3-fluorophenoxy)-N-[(2S)-4-{2-[4-fluoro-2-(methanesulfonyl)phenoxy]acetamido}-2-hydroxybicyclo[2.2.2]octan-1-yl]acetamide], the EC50 rises from < 10 nM to > 2000 nM.

`O=C(COc1ccc(Cl)c(F)c1)N[C@]12CC[C@H](C1)[C@@H](NCCOc1ccc(Cl)c(F)c1)[C@H](O)C2` (racemic) [Compound 649, rac-2-(4-chloro-3-fluorophenoxy)-N-[(1R,3R,4R,5R)-4-{[2-(4-chloro-3-fluorophenoxy)ethyl]amino}-3-hydroxybicyclo[3.2.1]octan-1-yl]acetamide] and `O=C(COc1ccc(Cl)c(F)c1)NC12CCC(NC(=O)COc3ccnc(C(F)(F)F)c3)(CC1)C(O)C2` (centres unmarked) [Compound 308, 2-(4-chloro-3-fluorophenoxy)-N-[3-hydroxy-4-(2-{[2-(trifluoromethyl)pyridin-4-yl]oxy}acetamido)bicyclo[2.2.2]octan-1-yl]acetamide] cannot be ordered by EC50: < 10 nM for the first, < 10 nM for the second.

`O=C(COc1ccc(Cl)c(F)c1)NC12CC(NS(=O)(=O)Cc3cccc(C(F)(F)F)c3)(C1)C2` [Compound 428, 2-(4-chloro-3-fluorophenoxy)-N-[3-({[3-(trifluoromethyl)phenyl]methanesulfonyl}amino)bicyclo[1.1.1]pentan-1-yl]acetamide] was tested, and the EC50 was 500 to 2000 nM.
